Reference: publication PMC2533715, “Suppressive Effects of Selected Food Phytochemicals on CD74 Expression in NCI-N87 Gastric Carcinoma Cells” (Journal of Clinical Biochemistry and Nutrition, 2008)
Where two headings read alike, the source gives them in different places.

Legend:
CD74 = test: Cell-based ELISA for constitutive CD74 expression; design: species or system human
Cell viability (MTT) = conditions: human
H. pylori = conditions: cited from earlier work
in vitro = conditions: human
NF-κB = test system: NF-κB; design: method as in PMID 15589482, PMID 16317159, PMID 9521814, PMID 17420607; conditions: several cell lines; cited from earlier work
[1] = 4 µM, 48 h, NCI-N87 cells; mean ± average deviation
[2] = NCI-N87 cells, 48 h; mean of duplicate experiments; unit printed in b25 only; read-out: IC50 (50% inhibitory concentration) for constitutive CD74 expression
[3] = NCI-N87 gastric carcinoma cells
[4] = 20 µM, 48 h, NCI-N87 cells; mean ± average deviation
[5] = 100 µM, 48 h, NCI-N87 cells; mean ± average deviation

| Structure (SMILES) | IR (%) inhibition rate of CD74 expression (CD74; [1]) | IC50 (CD74; [2]) | viability at 48 h, 4 µM (Cell viability (MTT); [3]) | viability at 48 h, 20 µM (Cell viability (MTT); [3]) | viability at 48 h, 100 µM (Cell viability (MTT); [3]) | IR (%) inhibition rate of CD74 expression (CD74; [4]) | IR (%) inhibition rate of CD74 expression (CD74; [5]) | CC50 at 48 h (Cell viability (MTT)) | also measured |
| --- | --- | --- | --- | --- | --- | --- | --- | --- | --- |
| C=C[C@H](OC(C)=O)c1ccc(OC(C)=O)cc1 [ACA, 1'-acetoxychavicol acetate] | 16 ± 1.6% | < 20 µM | 92 ± 3.4% | 20 ± 0.2% | 6.1 ± 0.3% |  |  |  | CC50 at 48 h (Cell viability (MTT); [3]): 25 µM |
| O=C1O[C@H]([C@@H](O)CO)C(O)=C1O [Ascorbic acid] | –12 ± 3.5% | > 100 µM | 97 ± 1.7% | 94 ± 0.3% | 86 ± 5.8% | 5.4 ± 3.8% | 6.8 ± 1.8% | > 100 µM | IR (%) inhibition rate of CD74 expression (CD74; 100 µM, 48 h, NCI-N87 cells; mean ± average deviation; listed as ascorbic acid): did not suppress CD74; H. pylori colonization and subsequent inflammation (H. pylori; Mongolian gerbils): reduced |
| CC(C)=CCC/C(C)=C/COc1ccc2ccc(=O)oc2c1 [Auraptene] | 2.4 ± 2.0% | 19.8 µM | 96 ± 2.7% | 79 ± 4.5% | 18 ± 0.4% | 50 ± 0.4% |  | 59.2 µM | IR (%) inhibition rate of CD74 expression (CD74; 20 µM, 48 h, NCI-N87 cells; mean ± average deviation; listed as auraptene): 40–65%; Suppression of CD74 expression (in words) (CD74; NCI-N87 cells, 48 h): significant activity; H. pylori colonization (H. pylori; in vivo): reduce |
| S=C=NCc1ccccc1 [BITC, benzyl isothiocyanate] | –19 ± 0.6% | < 20 µM | 96 ± 3.4% | 56 ± 7.9% |  |  |  | 44.3 µM | viability at 48 h, 100 µM (in vitro): 6.1 ± 1.3% |
| C=CCC/C(=N/OS(=O)(=O)O)S[C@@H]1O[C@H](CO)[C@@H](O)[C@H](O)[C@H]1O [BUGLS, gluconapin] | –15 ± 0.0% | > 100 µM | 88 ± 6.9% | 80 ± 3.5% | 79 ± 5.6% | −19 ± 2.5% | 4.0 ± 1.0% |  | CC50 at 48 h (Cell viability (MTT); [3]): > 100 µM |
| C=CCCN=C=S [BUITC, butenyl isothiocyanate] | –9.0 ± 0.4% |  | 71 ± 5.8% | 73 ± 3.3% | 44 ± 2.4% | 2.3 ± 0.8% |  | 81.5 µM | IC50 (CD74; read-out: IC50 (50% inhibitory concentration) for constitutive CD74 expression; NCI-N87 cells, 48 h; mean of duplicate experiments; unit printed in b25 only): > 100 µM |
| Cn1c(=O)c2c(ncn2C)n(C)c1=O [Caffeine] | 10 ± 7.7% | > 100 µM | 100 ± 2.6% | 100 ± 2.2% | 87 ± 1.9% | 22 ± 6.9% | 41 ± 9.2% |  |  |
| COc1cc(/C=C/C(=O)CC(=O)/C=C/c2ccc(O)c(OC)c2)ccc1O [Curucumin, curcumin] | 21 ± 8.0% | < 20 µM | 89 ± 1.1% | 12 ± 1.9% | 14 ± 6.8% |  |  |  | CC50 at 48 h (in vitro): 44.3 µM |
| COc1cc(/C=C/C(=O)O)ccc1O [Ferulic acid] | −5.1 ± 4.3% | > 100 µM | 96 ± 2.3% | 93 ± 0.7% | 82 ± 5.9% | 15 ± 5.8% | 20 ± 3.8% | > 100 µM |  |
| O=C(O)c1cc(O)c(O)c(O)c1 [Gallic acid] | 15 ± 2.4% | 96.4 µM | 97 ± 0.2% | 73 ± 2.4% | 97 ± 2.1% | 57 ± 3.7% | 47 ± 8.3% | > 100 µM | IR (%) inhibition rate of CD74 expression (CD74; 20 µM, 48 h, NCI-N87 cells; mean ± average deviation; listed as gallic acid): 40–65% |
| O=c1cc(-c2ccc(O)c(O)c2)oc2cc(O)cc(O)c12 [Luteolin] | 4.0 ± 5.1% | 18.4 µM | 99 ± 2.9% | 81 ± 4.7% | 61 ± 1.5% | 55 ± 1.2% |  |  | NF-κB inhibition (NF-κB): markedly inhibit; IR (%) inhibition rate of CD74 expression (CD74; 20 µM, 48 h, NCI-N87 cells; mean ± average deviation; listed as luteolin): 40–65%; CC50 at 48 h (in vitro): > 100 µM |
| COc1ccc(-c2cc(=O)c3c(OC)c(OC)c(OC)c(OC)c3o2)cc1OC [Nobiletin] | 1.8 ± 2.9% | 18.8 µM | 96 ± 0.3% | 93 ± 0.5% | 58 ± 5% | 54 ± 5.0% |  | > 100 µM | NF-κB inhibition (NF-κB): markedly inhibit; IR (%) inhibition rate of CD74 expression (CD74; 20 µM, 48 h, NCI-N87 cells; mean ± average deviation; listed as nobiletin): 40–65%; Suppression of CD74 expression (in words) (CD74; NCI-N87 cells, 48 h): significant activity |
| O=S(=O)(O)O/N=C(/CCc1ccccc1)S[C@@H]1O[C@H](CO)[C@@H](O)[C@H](O)[C@H]1O [PEGLS, gluconasturtiin] | −11 ± 4.4% | > 100 µM | 99 ± 1.4% | 88 ± 1.7% | 90 ± 1.4% | −25 ± 1.3% | −13 ± 3.8% |  | CC50 at 48 h (Cell viability (MTT); [3]): > 100 µM |
| S=C=NCCc1ccccc1 [PEITC, phenetyl isothiocyanate] | −17 ± 2.3% | < 20 µM |  |  |  |  |  | 61.3 µM | viability at 48 h, 4 µM (in vitro): 97 ± 4.8%; viability at 48 h, 20 µM (in vitro): 43 ± 1.8%; viability at 48 h, 100 µM (in vitro): 37 ± 2.2% |
| C[C@@H]1O[C@@H](OC[C@H]2O[C@@H](Oc3c(-c4ccc(O)c(O)c4)oc4cc(O)cc(O)c4c3=O)[C@H](O)[C@@H](O)[C@@H]2O)[C@H](O)[C@H](O)[C@H]1O [Rutin] | −4.3 ± 2.8% | > 100 µM | 97 ± 1.2% | 100 ± 1.1% | 80 ± 4.7% | −3.0 ± 0.0% | 11 ± 4.5% | > 100 µM |  |
| COc1ccc(-c2cc(=O)c3c(OC)c(OC)c(OC)c(OC)c3o2)cc1 [Tangeretin] | −3.3 ± 3.3% | 39.5 µM | 98 ± 2.7% | 100 ± 0.5% | 63 ± 3.1% | 21 ± 3.1% |  | > 100 µM | Suppression of CD74 expression (in words) (CD74; NCI-N87 cells, 48 h): significant activity |
| C[C@H]1[C@H](C)CC[C@]2(C(=O)O)CC[C@]3(C)C(=CC[C@@H]4[C@@]5(C)CC[C@H](O)C(C)(C)[C@@H]5CC[C@]43C)[C@H]12 [Ursolic acid] | 35 ± 6.1% | < 20 µM | 91 ± 1.6% | 38 ± 1.1% | 9.7% |  |  |  | CC50 at 48 h (in vitro): 35.4 µM |
| C/C1=C\CC(C)(C)/C=C/C(=O)/C(C)=C/CC1 [Zerumbone] | 6.6 ± 0.8% | 17.7 µM | 100 ± 0.4% | 77 ± 0.3% | 16 ± 1.1% | 57 ± 0.2% |  |  | NF-κB inhibition (NF-κB): markedly inhibit; IR (%) inhibition rate of CD74 expression (CD74; 20 µM, 48 h, NCI-N87 cells; mean ± average deviation; listed as zerumbone): 40–65%; CC50 at 48 h (Cell viability (MTT); [3]): 60.5 µM |
| CC(C)=CC(=O)CC(C)c1ccc(C)cc1 (stereo not shown) [ar-Turmerone] | 22 ± 0.5% | 30.8 µM | 97 ± 4.1% | 100 ± 3.2% | 57 ± 1.3% | 39 ± 1.8% |  | > 100 µM |  |
